Measured values published in patent publication US9074188B2, “Cardiomyocyte- and/or cardiac progenitor cell-proliferating agent and method for proliferating cardiomyocytes and/or cardiac progenitor cells” (KYOTO UNIVERSITY, priority 2010, dated 2015).

Experiments:
[1] = test system: Flkd6 cardiomyocytes whose differentiation was induced from mouse ES cells EMG-7; assay: Proliferation of mouse ES cell (EMG-7)-derived cardiomyocytes Flkd6: number of alpha-MHC-GFP-positive cells; format: cell-based; conditions: for number of alpha-MHC-GFP-positive cells after addition (screening): Flkd6 purified by FACS, cultured for 5 days, 1 μM BIO, 5 μM SU1498, 5 μM KN93, FIG. 1a; for number of alpha-MHC-GFP-positive cells by FACS: cultured for 2 days (Flkd6+2) or 5 days (Flkd6+5), especially Flkd6+5, FIG. 1b; for cardiomyocyte-proliferation-promoting effect (number of alpha-MHC-GFP-positive cells per well): Flkd6+5, FIGS. 3a, 3b, 3d
Experimental: The human iPS cells (253G1) were provided by Prof. […] 253G1 cells are available from RIKEN BRC.
Thereafter, Flk1-positive cells were separated using FACS, and the separated cells were cultured on OP9 cells using a 3 μg/ml Cyclosporine A-containing medium (alpha MEM supplemented with 10% FBS) for 6 days, to induce differentiation into cardiomyocytes. These cells are hereinafter referred to as Flkd6.
The above-mentioned Flkd6, obtained by differentiation of EMG-7, was subjected to purification by FACS using alpha-MHC-GFP as an index. […] These three agents were added to Flkd6, and the cells were then cultured for 2 days (Flkd6+2) or 5 days (Flkd6+5), followed by measuring the number of alpha-MHC-GFP-positive cells by FACS.

[2] = test system: Flkd6 cardiomyocytes whose differentiation was induced from EMG-7; assay: Influence on cell cycle: cells positive for pH3 (M phase) or EdU (S phase) in Flkd6; format: cell-based, mouse; conditions: Flkd6 cultured with agent; FIG. 2
Experimental: DMSO is a control wherein only a solvent was added.
In order to examine the influence on the cell cycle, the number of cells positive for phosphorylation of histone 3 (pH3) (M phase) or ethynyl […] (EdU) (S phase) was assayed (FIG. 2a-d).

SMILES	number of alpha-MHC-GFP-positive cells after addition (screening) [1]	number of alpha-MHC-GFP-positive cells by FACS [1]	influence on the cell cycle: pH3 (M phase) or EdU (S phase) positive cells [2]	cardiomyocyte-proliferation-promoting effect (number of alpha-MHC-GFP-positive cells per well) [1]
O=C1Nc2cc(Br)ccc2/C1=C1/Nc2ccccc2/C1=N\O [BIO, 6-bromoindirubin 3′-oxime]	significantly increased the number of alpha-MHC-GFP-positive cells	significant increase in the number of the positive cells	promotes the S phase and the M phase from the early stage after its addition	–
Cc1c[nH]c(-c2cnc(NCCNc3ccc(C#N)cn3)nc2-c2ccc(Cl)cc2Cl)n1 [CHIR99021]	–	–	–	also have similar effects
CN([C@@H](Cc1ccc(OS(=O)(=O)c2cccc3cnccc23)cc1)C(=O)N1CCN(c2ccccc2)CC1)S(=O)(=O)c1cccc2cnccc12 [KN62, 1-[N,O-bis(5-isoquinolinesulfonyl)-N-methyl-L-tyrosyl]-4-phenylpiperazine]	–	–	–	also have similar effects
COc1ccc(S(=O)(=O)N(CCO)c2ccccc2CN(C)CC=Cc2ccc(Cl)cc2)cc1 [KN93]	significantly increased the number of alpha-MHC-GFP-positive cells	significant increase in the number of the positive cells	–	–
CC(C)c1cc(/C=C(\C#N)C(=O)NCCCc2ccccc2)cc(C(C)C)c1O [SU1498, (E)-3-(3,5-diisopropyl-4-hydroxyphenyl)-2-[(3-phenyl-n-propyl)aminocarbonyl]acrylonitrile]	significantly increased the number of alpha-MHC-GFP-positive cells	significant increase in the number of the positive cells	–	–
Cc1ccc(NC(=O)c2cccc(N(C)C)c2)cc1NC(=O)c1ccc(O)cc1 [ZM336372, 3-(dimethylamino)-N-[3-[(4-hydroxybenzoyl)amino]-4-methylphenyl]benzamide]	–	–	–	has a cardiomyocyte-proliferation-promoting effect
